Assay results as given in ChEMBL document CHEMBL5053529 (J Med Chem, 2021).
≈ marks a conversion by molar mass, not a printed value.

How the values were obtained:
[1] = Clearance in mouse liver microsomes incubated up to 80 mins by LC-MS/MS analysis; assay type: ADME, Microsome; settings: 1.333 h
[2] = Clearance in rat liver microsomes incubated up to 80 mins by LC-MS/MS analysis; assay type: ADME, Microsome; settings: 1.333 h
[3] = Hepatic clearance in Sprague-Dawley rat at 6 mg/kg, po; assay type: ADME, organism-based; settings: in vivo
[4] = Solubility of the compound at pH 6.8; assay type: physicochemical; settings: buffer
[5] = Cmax in Sprague-Dawley rat at 6 mg/kg, po; assay type: ADME, organism-based; set-up: dose 6 mg/kg, route po; settings: in vivo
[6] = AUC (0 to infinity) in Sprague-Dawley rat at 6 mg/kg, po; assay type: ADME, organism-based; set-up: time infinity, dose 6 mg/kg, route po; settings: in vivo
[7] = Clearance in Beagle dog at 6 mg/kg, po; assay type: ADME, organism-based, Canis lupus familiaris; settings: in vivo
[8] = Half life in C57BL/6 mouse at 6 mg/kg, po; assay type: ADME, organism-based; settings: in vivo
[9] = AUC (0 to infinity) in C57BL/6 mouse at 6 mg/kg, po; assay type: ADME, organism-based; set-up: time infinity, dose 6 mg/kg, route po; settings: in vivo
[10] = Volume of distribution in steady state in Sprague-Dawley rat at 6 mg/kg, po; assay type: ADME, organism-based; settings: in vivo
[11] = Volume of distribution in steady state in Beagle dog at 0.3 mg/kg, po; assay type: ADME, organism-based, Canis lupus familiaris; settings: in vivo
[12] = Drug concentration in Sprague-Dawley rat brain at 100 umol/kg, po measured after 4 hrs by LC-MS/MS analysis; assay type: ADME, organism-based; settings: dose 100 µmol/kg, read-out: Drug uptake
[13] = Octanol/water partition coefficient, log P of the compound; assay type: physicochemical
[14] = Thermodynamic solubility of the compound at pH 1; assay type: physicochemical; settings: buffer, read-out: Therm_solubility
[15] = Volume of distribution in steady state in C57BL/6 mouse at 6 mg/kg, po; assay type: ADME, organism-based; settings: in vivo
[16] = Unbound drug concentration in Sprague-Dawley rat brain at 30 umol/kg, po measured after 4 hrs by LC-MS/MS analysis; assay type: ADME, organism-based; settings: in vivo, dose 30 µmol/kg
[17] = Drug concentration in Sprague-Dawley rat blood at 100 umol/kg, po measured after 4 hrs by LC-MS/MS analysis; assay type: ADME, organism-based; settings: dose 100 µmol/kg, read-out: Drug uptake
[18] = Drug concentration in Sprague-Dawley rat blood at 30 umol/kg, po measured after 4 hrs by LC-MS/MS analysis; assay type: ADME, organism-based; settings: dose 30 µmol/kg, read-out: Drug uptake
[19] = Unbound drug concentration in Sprague-Dawley rat brain at 100 umol/kg, po measured after 4 hrs by LC-MS/MS analysis; assay type: ADME, organism-based; settings: in vivo, dose 100 µmol/kg
[20] = Drug concentration in Sprague-Dawley rat brain at 3 umol/kg, po measured after 4 hrs by LC-MS/MS analysis; assay type: ADME, organism-based; settings: dose 3 µmol/kg, read-out: Drug uptake
[21] = Half life in Sprague-Dawley rat at 6 mg/kg, po; assay type: ADME, organism-based; settings: in vivo
[22] = Cmax in Beagle dog at 0.3 mg/kg, po; assay type: ADME, organism-based, Canis lupus familiaris; set-up: dose 0.3 mg/kg, route po; settings: in vivo
[23] = Oral bioavailability in Beagle dog at 0.3 mg/kg; assay type: ADME, organism-based, Canis lupus familiaris; settings: in vivo
[24] = Cmax in C57BL/6 mouse at 6 mg/kg, po; assay type: ADME, organism-based; set-up: dose 6 mg/kg, route po; settings: in vivo
[25] = Drug concentration in Sprague-Dawley rat brain at 30 umol/kg, po measured after 4 hrs by LC-MS/MS analysis; assay type: ADME, organism-based; settings: dose 30 µmol/kg, read-out: Drug uptake
[26] = AUC (0 to infinity) in Beagle dog at 0.3 mg/kg, po; assay type: ADME, organism-based, Canis lupus familiaris; set-up: time infinity, dose 0.3 mg/kg, route po; settings: in vivo
[27] = Unbound drug concentration in Sprague-Dawley rat brain at 10 umol/kg, po measured after 4 hrs by LC-MS/MS analysis; assay type: ADME, organism-based; settings: in vivo, dose 10 µmol/kg
[28] = Clearance in human liver microsomes incubated up to 80 mins by LC-MS/MS analysis; assay type: ADME, Microsome; settings: 1.333 h
[29] = Drug concentration in Sprague-Dawley rat blood at 10 umol/kg, po measured after 4 hrs by LC-MS/MS analysis; assay type: ADME, organism-based; settings: dose 10 µmol/kg, read-out: Drug uptake
[30] = Oral bioavailability in Sprague-Dawley rat at 6 mg/kg; assay type: ADME, organism-based; settings: in vivo
[31] = Hepatic clearance in Beagle dog at 0.3 mg/kg, po; assay type: ADME, organism-based, Canis lupus familiaris; settings: in vivo
[32] = Unbound drug concentration in Sprague-Dawley rat brain at 3 umol/kg, po measured after 4 hrs by LC-MS/MS analysis; assay type: ADME, organism-based; settings: in vivo, dose 3 µmol/kg
[33] = Thermodynamic solubility of the compound at pH 6.8; assay type: physicochemical; settings: buffer, read-out: Therm_solubility
[34] = Kinetic solubility of the compound at pH 7.4; assay type: physicochemical; settings: buffer, read-out: Kinetic_solubility
[35] = Drug concentration in Sprague-Dawley rat brain at 10 umol/kg, po measured after 4 hrs by LC-MS/MS analysis; assay type: ADME, organism-based; settings: dose 10 µmol/kg, read-out: Drug uptake
[36] = Oral bioavailability in C57BL/6 mouse at 6 mg/kg; assay type: ADME, organism-based; settings: in vivo
[37] = Drug concentration in Sprague-Dawley rat blood at 3 umol/kg, po measured after 4 hrs by LC-MS/MS analysis; assay type: ADME, organism-based; settings: dose 3 µmol/kg, read-out: Drug uptake
[38] = Half life in Beagle dog at 0.3 mg/kg, po; assay type: ADME, organism-based, Canis lupus familiaris; settings: in vivo

## COCCOc1cnc(C(=O)Nc2ccc(F)c([C@]3(C)CO[C@@](C)(C(F)(F)F)C(N)=N3)n2)c(N)n1
[1]
  CLH: 866 µL/min/mg
[2]
  CLH: 204 µL/min/mg

## C[C@@]1(c2nc(NC(=O)c3ncc(C(F)(F)F)cc3Cl)ccc2F)CO[C@@](C)(C(F)(F)F)C(N)=N1
[3]
  CLH: 37 mL/min/kg
[4]
  solubility: 13 µg/mL (≈ 25.3 µM)
[5]
  Cmax: 146 nM
[6]
  AUC: 2.045 µM·h
[7]
  CL/F: 2 mL/min/kg
[8]
  half-life: 9.5 h
[9]
  AUC: 1.16 µM·h
[10]
  Vdss: 6.9 L/kg
[11]
  Vdss: 3.9 L/kg
[12]
  concentration at 4 h: 3600 nM
[13]
  logP: 4.3
[14]
  solubility thermodynamic: > 1500 µg/mL
[15]
  Vdss: 6.9 L/kg
[1]
  CLH: 32 µL/min/mg
[16]
  Drug uptake(free): 0.12 µM
[17]
  concentration at 4 h: 3430 nM
[18]
  concentration at 4 h: 1710 nM
[19]
  Drug uptake(free): 0.03 µM
[20]
  concentration at 4 h: 180 nM
[21]
  half-life: 13.3 h
[22]
  Cmax: 257 nM
[23]
  bioavailability: 57%
[24]
  Cmax: 82 nM
[25]
  concentration at 4 h: 3280 nM
[26]
  AUC(0-inf): 7.75 µM·h
[27]
  Drug uptake(free): 0.008 µM
[28]
  CLH: 26 µL/min/mg
[29]
  concentration at 4 h: 440 nM
[30]
  bioavailability: 60%
[2]
  CLH: 37 µL/min/mg
[31]
  CLH: 3.3 mL/min/kg
[32]
  Drug uptake(free): 0.002 µM
[33]
  solubility thermodynamic: 23 µg/mL (≈ 44.8 µM)
[34]
  solubility kinetic: 15 µg/mL (≈ 29.2 µM)
[35]
  concentration at 4 h: 850 nM
[36]
  bioavailability: 48%
[37]
  concentration at 4 h: 160 nM
[38]
  half-life: 23.4 h

## Cc1cc(C#N)cnc1C(=O)Nc1ccc(F)c([C@]2(C)CO[C@@](C)(C(F)(F)F)C(N)=N2)c1
[3]
  CLH: 17 mL/min/kg
[5]
  Cmax: 128 nM
[6]
  AUC: 0.973 µM·h
[10]
  Vdss: 9 L/kg
[21]
  half-life: 4.9 h
